Assay results taken from BindingDB's records for patent US20240140938 (Merck Sharp & Dohme, 2024).

Molecular target: T1, Diacylglycerol O-acyltransferase 2 (Homo sapiens, UniProt Q96PD7)
T1 sequence (Q96PD7 whole entry): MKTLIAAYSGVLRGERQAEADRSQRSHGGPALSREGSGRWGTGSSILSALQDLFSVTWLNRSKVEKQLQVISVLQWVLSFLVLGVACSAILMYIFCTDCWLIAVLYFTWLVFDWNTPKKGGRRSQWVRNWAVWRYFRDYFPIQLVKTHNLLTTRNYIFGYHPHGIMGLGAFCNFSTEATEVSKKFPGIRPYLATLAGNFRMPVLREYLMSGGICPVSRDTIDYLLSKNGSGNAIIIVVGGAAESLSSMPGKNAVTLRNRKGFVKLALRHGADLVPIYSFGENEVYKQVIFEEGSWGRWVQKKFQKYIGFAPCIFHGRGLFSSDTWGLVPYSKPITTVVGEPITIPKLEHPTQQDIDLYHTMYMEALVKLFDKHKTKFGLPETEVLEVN
Assay: DGAT2 Enzymatic Activity Assay
Procedure: DGAT2 activity was determined by measuring the amount of enzymatic product 13C18-triolein (13C-1,2,3-Tri(cis-9-octadecenoyl)glycerol) using the membrane prep mentioned above. The assay was carried out in ABgene 384-well assay plates in a final volume of 25 μL at rt.

IC50	Structure (SMILES)
0.319 µM	CC(C)n1nc(-c2cccc(OC(F)F)c2)c2c1C[C@H](C(=O)NC1(C)CS(=O)(=O)C1)CC2 [US20240140938, Example 26]
> 10 µM	CN1CCC(n2nc(-c3cccc(OC(F)F)c3)c3c2C[C@H](C(=O)N[C@]2(C)CCS(=O)(=O)C2)CC3)CC1 [US20240140938, Example 72]
> 10 µM	CC(C)n1nc(-c2cccc(-n3cccn3)c2)c2c1C[C@H](C(=O)NC1(C)CS(=O)(=O)C1)CC2 [US20240140938, Example 97]
8.84 µM	CC(C)n1nc(-c2cccc(C(C)(F)F)c2)c2c1C[C@H](C(=O)NC1(C)CS(=O)(=O)C1)CC2 [US20240140938, Example 102]
